Test results from US12458659B2, “Methods for treating macrophage-mediated diseases, and methods of identifying agents useful therefore” (The Regents of the University of California, priority 2019, dated 2025).

What was measured:
NLRP3 inflammasome = test: IL-1β release by LPS-primed macrophages stimulated with NLRP3 activators (ELISA); type: cell-based, mouse; details: BMDM pretreated with A769662, LPS-primed, ATP and nigericin 40 min
Procedure: Macrophage culture and stimulation—Femurs and tibias from C57BL/6 mice, Ampkα1^−/− mice, and Il10rb^−/− mice at 6-10 weeks of age were used to generate bone-marrow-derived macrophages (BMDM) as described (Hornung et al., 2008). Macrophages were cultured in DMEM supplemented with 10% FBS, 20% L929-cell conditioned medium, and 100 U/ml penicillin-streptomycin for 7-10 days. Bone marrow was isolated from MWS Nlrp3^A350VneoRCreT, FCAS Nlrp3^L351PneoCreT and NOMID Nlrp3^D301NneoCreT conditional knock-in mice (Bonar et al., 2012; Brydges et al., 2009), and were allowed to differentiate over 7 days with addition of fresh mouse recombinant GMCSF every three days. (Z)-4-hydroxitamoxifen at 0.4 μg/ml was added to cells 24 hr prior to treatment to induce the mutant Nlrp3 allele. Immortalized mouse BMDM were grown in DMEM supplemented with 10% FBS and 100 U/ml penicillin-streptomycin. All cells were grown at 37° C. with 5% CO2. NLRP3 inflammasome activation was induced priming for 4 hr with ultrapure LPS (100 ng/ml) followed by treatment with the NLRP3 activators ATP (4 mM) and nigericin (10 μM) for 45 min, unless otherwise indicated, and monosodium urate (MSU) crystals (400 μg/ml) and 1,2-dioleoyl-3-trimethylammoniumpropane (DOTAP) liposomes (50 μg/ml) for 3 hr. In Nlrp3 mutant macrophages IL-1b production was induced by LPS treatment for 16 hr at 37° C., whereas FCAS macrophages were incubated at 32° C. without LPS addition. AIM2 inflammasome activation was induced by 4 hr LPS priming and transfection with lipofectamine 3000 and the AIM2 activator poly(dA:dT) (1 μg/ml) for 8 hr. For choline deprivation experiments, the cells were cultured in CMRL1066 medium with or without choline for 2-3 hr before priming with LPS and kept during the experiment.
(§1) Protein Immunoblotting and ELISA—Mitochondria were isolated using Mitochondria Isolation kit. Whole cell lysates were prepared in NP40 buffer containing a protease inhibitor cocktail and a phosphatase inhibitor cocktail, and supernatants were analyzed by SDS-PAGE. […]

Slc44a1/CTL1 = Slc44a1/CTL1 induction by LPS in BMDM (QPCR); type: cell-based, mouse; details: BMS345541-pretreated BMDM treated with LPS
Procedure: RNA Isolation and Quantitative Real-Time PCT (QPCR)—RNA was extracted using AllPrep DNA/RNA Mini kit, and cDNA was synthesized using SUPERSCRIPT™ VILO™ cDNA Synthesis Kit. mRNA expression was determined by QPCR in a CFX96 thermal cycler (Biorad) as described (Zhong et al., 2016c). Data are presented in arbitrary units and were calculated by 2^(-delta delta CT) method. Primer sequences were obtained from the NIH qPrimerDepot (mouseprimerdepot.nci.nih.gov) and provided by Integrated DNA technologies, as set forth below.

[1] = system: MWS Nlrp3^A350VneoRCreT mutant mice; test: Muckle Wells Syndrome mice; type: in vivo, mouse; details: 2.5 mg/kg IP BID for 15 days
Procedure: Muckle Wells Syndrome Mice—Sixteen- to twenty-two-week-old male MWS Nlrp3^A350VneoRCreT mutant mice were subjected to MN58b (2.5 mg/kg) or vehicle IP injection BID daily for 15 days. Tamoxifen (50 mg/kg) was administered daily via IP for 4 days after first MN58b (or vehicle) treatment, and once more on day 7 to maintain Cre expression. At the endpoint, blood, spleen and liver were collected for analysis. Complete blood counts were preformed using a ScilVet Animal Blood Counter (ABX Diagnostics). Livers were paraffin embedded and hematoxylin and eosine staining was performed to assess liver histology. None of the animals was excluded from the analysis and liver histology was blind examined.

C57BL/6 mice [2] = test: LPS-induced septic shock; type: in vivo, mouse
Procedure: LPS-induced septic shock and air pouch model—Eight- to twelve-week-old C57BL/6 mice were subjected to LPS-induced septic shock as described (Zhong et al., 2016c). Briefly, 50 mg/kg LPS was intraperitoneal (IP) injected, and when indicated, animals were pretreated with the ChoKα inhibitor MN58B 2.5 mg/kg or vehicle (sodium chloride) via IP injection daily, starting three days before LPS challenge. Mice were analyzed for survival and circulating cytokines (3 hr after LPS challenge). None of the animals was excluded from the analysis.

C57BL/6 mice [3] = test: Synovium-like air pouch gout model (MSU crystals); type: in vivo, mouse
Procedure: Synovium-like air pouch gout model—Subcutaneous air pouches were generated by repeated injection of sterile air into 8-12-week old C57BL/6 mice to create an accessible space that develops a synovium-like membrane within 7 days as described (Wang et al., 2016). Afterward, mice were treated with MN58b IP (2.5 mg/kg) or vehicle, 24 hr before injecting lml MSU crystals (3 mg/ml) into the air pouch. Pouch tissue and fluids were harvested 8 hr later for analysis. None of the animals was excluded from the analysis.

ChoKα = ChoKα levels after colchicine treatment; type: cell-based
CTL1 [4] = test: CTL1 levels after colchicine treatment; type: cell-based
CTL1 [5] = test: CTL1 protein expression in LPS stimulated BMDM (immunoblot); type: cell-based, mouse; details: LPS stimulation
Procedure: Macrophage culture and stimulation—Femurs and tibias from C57BL/6 mice, Ampkα1^−/− mice, and Il10rb^−/− mice at 6-10 weeks of age were used to generate bone-marrow-derived macrophages (BMDM) as described (Hornung et al., 2008). Macrophages were cultured in DMEM supplemented with 10% FBS, 20% L929-cell conditioned medium, and 100 U/ml penicillin-streptomycin for 7-10 days. Bone marrow was isolated from MWS Nlrp3^A350VneoRCreT, FCAS Nlrp3^L351PneoCreT and NOMID Nlrp3^D301NneoCreT conditional knock-in mice (Bonar et al., 2012; Brydges et al., 2009), and were allowed to differentiate over 7 days with addition of fresh mouse recombinant GMCSF every three days. (Z)-4-hydroxitamoxifen at 0.4 μg/ml was added to cells 24 hr prior to treatment to induce the mutant Nlrp3 allele. Immortalized mouse BMDM were grown in DMEM supplemented with 10% FBS and 100 U/ml penicillin-streptomycin. All cells were grown at 37° C. with 5% CO2. […]
as §1

[6] = system: choline mobilization via the Kennedy pathway; test: Choline, phosphocholine and phosphatidylcholine content of LPS-stimulated BMDM (NMR, MS); type: cell-based, mouse; details: BMDM, LPS 4 hr
Procedure: Choline and Phosphocholine Analysis by NMR—BMDM were treated with LPS for 4 hr and then were collected and processed for NMR analysis as described (Guma et al., 2015a; Tiziani et al., 2009). Polar metabolite isolation was performed using a modified Bligh-Dyer procedure (Wu et al., 2008). Extracts were dried using a CentriVap refrigerated vacuum concentrator (Labconco, Kansas City, MO, USA). Dried extracts were reconstituted in 100 mM phosphate buffer (pH 7.0) prepared in 10% H2O/90% D2O (Sigma) that contained 0.5 mM sodium 3-(trimethylsilyl)propionate-2,2,3,3,-d4 (TMSP) as the internal standard. One-dimensional ^1H NMR spectra were acquired on a Bruker Avance III 500 MHz with 1.7 mm TCI MicroCryoProbe system (Bruker BioSpin Corp., Billerica, MA) equipped with an autosampler at 300 K and processed as previously described (Lodi et al., 2017; Lu et al., 2017; Ludwig and Gunther, 2011). Metabolite assignment and quantification were performed using the Chenomx 8.2 NMR Suite (Chenomx Inc., Edmonton, Alberta, Canada), the Birmingham Metabolite Library (Ludwig et al., 2012), and the Human Metabolome Database (Wishart et al., 2012).
Total phosphatidylcholine and mitochondrial lipids analysis by mass spectrometry—Total phosphatydilcholine (PC) analysis was measured in RSM932A-pretreated BMDM stimulated with LPS for 4 hr, while mitochondrial lipids were measured in mitochondria isolated from BMDM cultured in control or choline deficient medium and subjected to different treatments for 24 hr. Samples were processed for UHPLC-MS/MS analysis and analysis was performed on a hybrid quadrupole-Orbitrap mass spectrometer (Q Exactive, Thermo Scientific, Bremen, Germany) coupled to an Accela 1250 UHPLC system equipped with a quaternary pump, vacuum degasser, and open autosampler with temperature controller (6° C.; Fisher Scientific, San Jose, CA, USA). […]

Sequence of CTL1 (Q6X893 whole entry): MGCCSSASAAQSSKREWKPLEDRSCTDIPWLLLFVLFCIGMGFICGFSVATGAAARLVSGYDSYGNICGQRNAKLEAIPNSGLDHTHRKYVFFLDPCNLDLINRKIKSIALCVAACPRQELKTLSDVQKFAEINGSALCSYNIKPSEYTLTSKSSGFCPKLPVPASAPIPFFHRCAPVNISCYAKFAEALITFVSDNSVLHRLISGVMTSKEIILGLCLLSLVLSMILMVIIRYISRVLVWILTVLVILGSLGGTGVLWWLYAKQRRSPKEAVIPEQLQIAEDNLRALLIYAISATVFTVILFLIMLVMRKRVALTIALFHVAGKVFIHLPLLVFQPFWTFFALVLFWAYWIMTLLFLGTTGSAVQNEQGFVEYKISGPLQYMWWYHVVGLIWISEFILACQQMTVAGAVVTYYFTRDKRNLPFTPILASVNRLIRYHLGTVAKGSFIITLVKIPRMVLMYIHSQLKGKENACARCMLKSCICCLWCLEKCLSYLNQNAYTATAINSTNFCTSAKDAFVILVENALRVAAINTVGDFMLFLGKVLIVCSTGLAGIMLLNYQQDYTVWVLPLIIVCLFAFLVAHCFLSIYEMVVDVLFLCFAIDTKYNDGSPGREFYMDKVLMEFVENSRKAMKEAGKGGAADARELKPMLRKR

N#Cc1c(O)c2c(-c3ccc(-c4ccccc4O)cc3)csc2[nH]c1=O [A769662]
IL-1β production (NLRP3 inflammasome): significantly reduced

Cc1ccc2nc(NCCN)c3ncc(C)n3c2c1 [BMS345541]
Slc44a1/CTL1 induction (Slc44a1/CTL1): blocked

CN(C)c1cc[n+](Cc2ccc(CCCCc3ccc(C[n+]4ccc(N(C)C)cc4)cc3)cc2)cc1.[Br-].[Br-] [MN58b]
MWS splenomegaly [1]: reduced | granulocytes [1]: reduction | liver size [1]: reduced | lymphocyte count [1]: without an effect | monocytes [1]: reduction | total white blood cells count [1]: reduction | LPS-induced death (C57BL/6 mice [2]; 2.5 mg/kg IP daily for 3 days before 50 mg/kg LPS IP): prevented | circulating IL-1β (C57BL/6 mice [2]; 2.5 mg/kg IP daily for 3 days before LPS, 3 hr after LPS): reduced | IL-6 production (C57BL/6 mice [2]; circulating, 3 hr after LPS): did not inhibit | TNF production (C57BL/6 mice [2]; circulating, 3 hr after LPS): did not inhibit | total leukocyte recruitment into the pouch (C57BL/6 mice [3]; 2.5 mg/kg 24 hr before MSU crystals): attenuated | production of IL-1β (C57BL/6 mice [3]; 2.5 mg/kg 24 hr before MSU crystals, pouch): reduced | reduction of IL-1β release (C57BL/6 mice [3]; 2.5 mg/kg IP 24 hr before MSU crystals, pouch harvested 8 hr later, p<0.01): 66% | reduction of MSU crystal-induced leukocyte recruitment (C57BL/6 mice [3]; 2.5 mg/kg IP 24 hr before MSU crystals, pouch harvested 8 hr later, p<0.05): 47%

COc1cc2c(c(OC)c1OC)-c1ccc(OC)c(=O)cc1[C@@H](NC(C)=O)CC2 [colchicine]
reduction of ChoKα levels (ChoKα): 85% | reduction of CTL1 levels (CTL1 [4]): 90%

lipopolysaccharide [LPS]
increase of CTL1 expression (CTL1 [5]): 6 fold | increase of phosphocholine ([6]; p<0.001): 559% | increase of intracellular choline ([6]; p<0.01): 238%
